IC50 and Ki data for 6 compounds are collected here from ChEMBL document CHEMBL1909046, “DrugMatrix in vitro pharmacology data”.

For test [1], the target named is T1, Muscarinic acetylcholine receptor M2 (Homo sapiens, UniProt P08172). Note: in other assays of this panel Not Active means under 50% inhibition at 10 µM.
T1 sequence (P08172 whole entry): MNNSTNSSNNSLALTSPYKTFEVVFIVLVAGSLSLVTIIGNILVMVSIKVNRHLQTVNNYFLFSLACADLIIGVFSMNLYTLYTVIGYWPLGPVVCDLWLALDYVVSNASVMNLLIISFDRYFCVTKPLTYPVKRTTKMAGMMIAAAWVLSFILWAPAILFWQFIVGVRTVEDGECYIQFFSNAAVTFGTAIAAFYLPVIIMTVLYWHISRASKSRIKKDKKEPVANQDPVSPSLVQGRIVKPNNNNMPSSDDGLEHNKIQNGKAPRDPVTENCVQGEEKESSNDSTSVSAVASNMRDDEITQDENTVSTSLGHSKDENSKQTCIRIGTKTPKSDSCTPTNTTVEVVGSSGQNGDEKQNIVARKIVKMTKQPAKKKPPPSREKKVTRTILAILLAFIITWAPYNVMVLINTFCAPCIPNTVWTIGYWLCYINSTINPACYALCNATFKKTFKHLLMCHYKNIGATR
The class given is cell membranes, CHO-K1, Membrane.

In another test the target is T2, Calcitonin receptor (Homo sapiens, UniProt P30988). Note: in other assays of this panel Not Active means under 50% inhibition at 10 µM.
T2 sequence (P30988 whole entry): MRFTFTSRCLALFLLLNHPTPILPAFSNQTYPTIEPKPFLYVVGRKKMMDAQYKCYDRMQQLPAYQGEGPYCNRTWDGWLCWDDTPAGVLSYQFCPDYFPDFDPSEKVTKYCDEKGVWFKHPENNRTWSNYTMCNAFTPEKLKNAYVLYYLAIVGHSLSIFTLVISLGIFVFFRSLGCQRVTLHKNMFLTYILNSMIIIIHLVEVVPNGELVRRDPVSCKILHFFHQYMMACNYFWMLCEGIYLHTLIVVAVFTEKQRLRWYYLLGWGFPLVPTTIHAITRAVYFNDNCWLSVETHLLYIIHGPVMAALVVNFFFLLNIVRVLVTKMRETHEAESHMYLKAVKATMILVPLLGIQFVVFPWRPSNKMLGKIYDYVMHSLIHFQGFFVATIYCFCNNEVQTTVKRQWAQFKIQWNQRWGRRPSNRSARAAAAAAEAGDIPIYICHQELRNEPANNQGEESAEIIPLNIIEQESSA
The class given is cell membranes, Membrane. Conditions: t47d.

Test [2] deals with T3, Alpha-1A adrenergic receptor (Rattus norvegicus, UniProt P43140).
T3 sequence (P43140 whole entry): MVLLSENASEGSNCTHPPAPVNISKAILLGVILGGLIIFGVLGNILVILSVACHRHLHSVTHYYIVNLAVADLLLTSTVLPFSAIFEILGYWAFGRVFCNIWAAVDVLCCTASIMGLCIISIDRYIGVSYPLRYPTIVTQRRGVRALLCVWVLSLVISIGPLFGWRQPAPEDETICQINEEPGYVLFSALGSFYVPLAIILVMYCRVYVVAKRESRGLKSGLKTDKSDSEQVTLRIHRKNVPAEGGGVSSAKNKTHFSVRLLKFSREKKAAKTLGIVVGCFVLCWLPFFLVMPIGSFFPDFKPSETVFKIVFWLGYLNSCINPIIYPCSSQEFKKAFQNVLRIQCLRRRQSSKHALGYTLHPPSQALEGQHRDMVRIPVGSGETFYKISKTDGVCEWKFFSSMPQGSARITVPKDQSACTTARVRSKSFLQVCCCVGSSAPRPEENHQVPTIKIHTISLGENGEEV
The test is described as follows: DRUGMATRIX: Alpha-1A adrenergic receptor radioligand binding (ligand: prazosin). Format: cell membranes, Wistar, Submaxillary gland, Membrane. As to conditions: Not Active = under 50% inhibition at 10 µM.

The target of test [3] is C-C chemokine receptor type 5 (Homo sapiens, UniProt P51681). The class given is cell membranes, Membrane. As to conditions: hek293. Note: in other assays of this panel Not Active means under 50% inhibition at 10 µM.
Sequence of C-C chemokine receptor type 5 (P51681 whole entry): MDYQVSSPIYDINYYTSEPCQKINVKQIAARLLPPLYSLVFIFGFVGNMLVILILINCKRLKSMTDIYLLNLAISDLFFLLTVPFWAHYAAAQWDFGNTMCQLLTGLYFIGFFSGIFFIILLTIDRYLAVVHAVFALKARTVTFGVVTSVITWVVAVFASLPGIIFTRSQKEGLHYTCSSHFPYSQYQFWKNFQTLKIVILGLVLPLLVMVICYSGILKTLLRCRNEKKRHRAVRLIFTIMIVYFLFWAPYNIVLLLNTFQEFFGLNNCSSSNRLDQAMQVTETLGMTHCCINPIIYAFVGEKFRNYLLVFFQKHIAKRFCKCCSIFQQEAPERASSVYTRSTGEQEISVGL
Test [4] is described as follows: DRUGMATRIX: Calcium Channel Type L, Dihydropyridine radioligand binding (ligand: [3H] Nitrendipine). Format: cell membranes, Rattus norvegicus, Wistar, Cerebral cortex, Membrane. As to conditions: Not Active = under 50% inhibition at 10 µM.
Test [5] deals with Platelet-activating factor receptor (Homo sapiens, UniProt P25105). The class given is tissue-based.
Sequence of Platelet-activating factor receptor (P25105 whole entry): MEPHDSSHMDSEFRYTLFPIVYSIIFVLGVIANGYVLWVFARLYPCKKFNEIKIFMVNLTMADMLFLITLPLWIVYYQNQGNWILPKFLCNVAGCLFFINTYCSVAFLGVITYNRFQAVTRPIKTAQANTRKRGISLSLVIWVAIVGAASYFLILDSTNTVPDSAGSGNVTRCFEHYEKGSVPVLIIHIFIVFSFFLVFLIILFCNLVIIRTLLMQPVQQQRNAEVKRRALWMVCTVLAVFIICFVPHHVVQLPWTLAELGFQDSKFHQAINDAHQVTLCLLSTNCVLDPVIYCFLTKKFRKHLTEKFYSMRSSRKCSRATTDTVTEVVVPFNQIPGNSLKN
The target of test [6] is Matrix metalloproteinase-9 (Homo sapiens, UniProt P14780). Format: cell-based.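 Note: inhibition of isolated MMP-9 enzyme activity toward a synthetic peptide substrate, from the DrugMatrix protease screening panel; in other assays of this panel Not Active means under 50% inhibition at 10 µM.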
Sequence of Matrix metalloproteinase-9 (P14780 whole entry): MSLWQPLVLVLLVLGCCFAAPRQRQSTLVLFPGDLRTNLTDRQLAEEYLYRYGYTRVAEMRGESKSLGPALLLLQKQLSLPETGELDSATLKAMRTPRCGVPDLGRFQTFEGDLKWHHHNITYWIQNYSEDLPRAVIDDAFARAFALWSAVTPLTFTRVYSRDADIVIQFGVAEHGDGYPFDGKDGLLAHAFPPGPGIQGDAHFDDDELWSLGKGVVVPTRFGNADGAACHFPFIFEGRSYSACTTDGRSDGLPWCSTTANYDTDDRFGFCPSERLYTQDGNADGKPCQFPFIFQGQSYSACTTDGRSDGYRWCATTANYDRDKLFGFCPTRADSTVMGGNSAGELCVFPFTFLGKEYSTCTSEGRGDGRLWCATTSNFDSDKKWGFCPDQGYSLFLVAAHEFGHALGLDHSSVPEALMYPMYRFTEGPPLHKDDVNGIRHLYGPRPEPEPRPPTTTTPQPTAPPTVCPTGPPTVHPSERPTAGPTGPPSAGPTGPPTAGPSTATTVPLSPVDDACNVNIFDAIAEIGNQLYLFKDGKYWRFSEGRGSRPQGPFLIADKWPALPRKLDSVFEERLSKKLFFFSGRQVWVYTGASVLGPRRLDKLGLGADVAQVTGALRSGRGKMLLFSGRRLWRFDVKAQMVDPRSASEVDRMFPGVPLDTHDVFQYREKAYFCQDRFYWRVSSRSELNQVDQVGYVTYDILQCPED

Regarding `CCN(CC)CCCC(C)Nc1c2ccc(Cl)cc2nc2ccc(OC)cc12` (stereo unspecified) [QUINACRINE], the IC50 (as a rule, the concentration at which inhibition is half-maximal) in test [1] (read-out: IC50) was 964 nM; at Calcitonin receptor, “Not Active”; in test [2] it was “Not Active”; in test [3], “Not Active”; in test [4] it was “Not Active”; in test [5], “Not Active”. The IC50 entry in test [6] is reported as “Not Active”. In addition, the figures for the Ki in test [1] (read-out: Ki) and in test [4] were 343 nM and “Not Active”, respectively.
In the case of `C[C@]12C=CC(=O)C=C1CC[C@H]1[C@@H]3C[C@@H](O)[C@](O)(C(=O)CO)[C@@]3(C)C[C@H](O)[C@@]12F` [TRIAMCINOLONE], the IC50 result (in test [1] (cho-k1); on Calcitonin receptor; in test [2]; in test [3]; in test [4]; in test [5]) was “Not Active” throughout. In addition, in test [6], the IC50 result was “Not Active”. For the same compound, in test [4], the Ki – broadly, the dissociation constant of the complex between target and ligand, obtained from inhibition or displacement – is reported as “Not Active”.
Turning to `CC[C@]1(O)C[C@@H]2CN(CCc3c([nH]c4ccccc34)[C@@](C(=O)OC)(c3cc4c(cc3OC)N(C)[C@H]3[C@@](O)(C(N)=O)[C@H](O)[C@]5(CC)C=CCN6CC[C@]43[C@@H]65)C2)C1` [VINDESINE], the IC50 entry (in test [1] (cho-k1); at Calcitonin receptor; in test [2]; in test [3]; in test [4]; in test [5]) was “Not Active” throughout. In addition, the 50% inhibitory concentration (IC50) entry in test [6] is “Not Active”. Further, the Ki result in test [4] is “Not Active”.
With `CCN(C(C)=O)c1cccc(-c2ccnc3c(C#N)cnn23)c1` [ZALEPLON], the IC50 result (in test [1] (cho-k1); at Calcitonin receptor; in test [2]; in test [3]; in test [4]; in test [5]) was “Not Active” throughout. In addition, the IC50 entry in test [6] is recorded as “Not Active”. The Ki result in test [4] is recorded as “Not Active”.
As to COBALTOUS CHLORIDE, the concentration for half-maximal inhibition (IC50) entry (in test [1] (cho-k1); at Calcitonin receptor; in test [2]; in test [3]; in test [4]; in test [5]) was “Not Active” throughout. The IC50 entry in test [6] was “Not Active”. Moreover, the Ki entry (in test [1] (cho-k1); at Calcitonin receptor; in test [2]; in test [3]; in test [4]; in test [5]) was “Not Active” throughout. Also, in test [6], the Ki result was “Not Active”.
For the compound COLISTIN, the IC50 result (in test [1] (cho-k1); on Calcitonin receptor; in test [2]; in test [3]; in test [4]; in test [5]) was “Not Active” in each case. The IC50 result in test [6] was “Not Active”. Moreover, the Ki entry (in test [1] (cho-k1); on Calcitonin receptor; in test [2]; in test [3]; in test [4]; in test [5]) was “Not Active” each time. Besides, the Ki result in test [6] was “Not Active”.
